In brackets after ≈: the same amount, converted by molar mass.
Legend:
Format in all cases: functional
[1] = system: Staphylococcus aureus; assay: Antibacterial activity against Staphylococcus aureus ATCC 29213
[2] = system: Staphylococcus aureus; assay: Antibacterial activity against multidrug resistant Staphylococcus aureus BAA-39
[3] = system: Staphylococcus aureus; assay: Antibacterial activity against methicillin-resistant Staphylococcus aureus ATCC 33591
[4] = system: Staphylococcus epidermidis; assay: Antibacterial activity against Staphylococcus epidermidis ATCC 12228
[5] = system: Staphylococcus epidermidis; assay: Antibacterial activity against methicillin-resistant Staphylococcus epidermidis ATCC 51625
[6] = system: Streptococcus pneumoniae; assay: Antibacterial activity against Streptococcus pneumoniae ATCC 6301
[7] = system: Enterococcus faecalis; assay: Antibacterial activity against vancomycin-resistant Enterococcus faecalis ATCC 51575
[8] = system: Enterococcus faecium; assay: Antibacterial activity against vancomycin-resistant Enterococcus faecium ATCC 700221
[9] = system: Bacillus subtilis; assay: Antibacterial activity against Bacillus subtilis ATCC 23857
[10] = system: Bacillus cereus; assay: Antibacterial activity against Bacillus cereus ATCC 11778
[11] = system: Bacteroides fragilis; assay: Antibacterial activity against […] ATCC 23745
[12] = system: Clostridium perfringens; assay: Antibacterial activity against Clostridium perfringens ATCC 10388
[13] = system: Candida albicans; assay: Antifungal activity against Candida albicans ATCC 90028
[14] = Ratio of MIC for Candida albicans ATCC 90028 to MIC for methicillin-resistant Staphylococcus aureus ATCC 33591
[15] = Ratio of MIC for Candida albicans ATCC 90028 to MIC for vancomycin-resistant Enterococcus faecium ATCC 700221

| Structure (SMILES) | MIC [1] [µg/mL] | MIC [2] [µg/mL] | MIC [3] [µg/mL] | MIC [4] [µg/mL] | MIC [5] [µg/mL] | MIC [6] [µg/mL] | MIC [7] [µg/mL] | MIC [8] [µg/mL] | MIC [9] [µg/mL] | MIC [10] [µg/mL] | MIC [11] [µg/mL] | MIC [12] [µg/mL] | MIC [13] [µg/mL] | Ratio [14] | Ratio [15] |
| --- | --- | --- | --- | --- | --- | --- | --- | --- | --- | --- | --- | --- | --- | --- | --- |
| CC(C)NC(=N)c1ccc2cc(-c3ccc(Oc4ccc(-c5cc6ccc(C(=N)NC(C)C)cc6[nH]5)cc4)cc3)[nH]c2c1 | 0.12 (≈ 0.211 µM) | ≤ 0.06 | ≤ 0.06 | ≤ 0.06 | ≤ 0.06 | ≤ 0.06 | 0.25 (≈ 0.44 µM) | ≤ 0.06 | ≤ 0.06 | ≤ 0.06 | 0.125 (≈ 0.22 µM) | 0.5 (≈ 0.879 µM) | 0.5 (≈ 0.879 µM) | 8 |  |
| N=C(c1ccc2[nH]c(-c3ccc(Oc4ccc(-c5nc6cc(C(=N)N7CCSCC7)ccc6[nH]5)cc4)cc3)nc2c1)N1CCSCC1 | 0.5 (≈ 0.759 µM) | 0.5 (≈ 0.759 µM) | 0.25 (≈ 0.379 µM) | 0.12 (≈ 0.182 µM) | 0.25 (≈ 0.379 µM) | 0.25 (≈ 0.379 µM) | 0.5 (≈ 0.759 µM) | 0.5 (≈ 0.759 µM) | 0.25 (≈ 0.379 µM) | 0.5 (≈ 0.759 µM) | 4 (≈ 6.07 µM) | 1 (≈ 1.52 µM) | 16 (≈ 24.3 µM) | 32 | 32 |
| CC(C)NC(=N)c1ccc2[nH]c(-c3ccc(Oc4ccc(-c5nc6cc(C(=N)NC(C)C)ccc6[nH]5)cn4)cc3)nc2c1 | 1 (≈ 1.75 µM) | 1 (≈ 1.75 µM) | 0.5 (≈ 0.875 µM) | 0.12 (≈ 0.21 µM) | 0.12 (≈ 0.21 µM) | 0.12 (≈ 0.21 µM) | 0.25 (≈ 0.437 µM) | ≤ 0.06 | 0.25 (≈ 0.437 µM) | 0.12 (≈ 0.21 µM) | > 32 | 2 (≈ 3.5 µM) | 2 (≈ 3.5 µM) |  |  |

Source: ChEMBL document CHEMBL1153072, “Synthesis and structure-activity relationship of dicationic diaryl ethers as novel potent anti-MRSA and anti-VRE agents” (2009)
